Source: ChEMBL document CHEMBL1201862, “PubChem BioAssay data set” (2004)
Active and inactive are the calls of the source.

Columns and labels:
Paired box protein Pax-8 = Paired box protein Pax-8 (Homo sapiens, UniProt Q06710); test: inhibitors of PAX8-driven TPO luciferase reporter, dose response, RMG-I cells, cherry-pick (AID 687027); format: functional, cell-based;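 also: luciferase reporter driven by Pax8 target thyroperoxidase promoter measured by SteadyGlo luminescence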
[1] = inhibitors of CMV-promoter luciferase reporter, dose response, counter-screen for Pax8 inhibitor project, cell-based, HEK293, luminescence, dry powder (AID 743020); format: functional
[2] = NIH:OVCAR-3 ovarian cancer cell cytotoxicity, dose response, PAX8 inhibitor project, plate reader, dry powder samples (AID 743044); format: functional, cell-based
Plasmodium falciparum = test: growth inhibition of P. falciparum 3D7, dose response, 3D7 strain, red blood cells, SYBR Green, cherry-picked (AID 652047); format: functional
Beta-lactamase [3] = target: Beta-lactamase (Pseudomonas aeruginosa, UniProt Q79MP6);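 also: biochemical dose-response test of metallo-beta-lactamase enzyme inhibition, read out by epi-absorbance; purified recombinant IMP-1 metallo-beta-lactamase with nitrocefin as substrate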
Beta-lactamase [4] = target: Beta-lactamase (Salmonella choleraesuis (strain SC-B67), UniProt Q5J463)
ORF 73 = target: T1, ORF 73 (Human herpesvirus 8, UniProt O40947); test: inhibitors of C-LANA binding to LBS DNA, dose response, biochemical, fluorescence polarization, cherry-picked samples (AID 504725); parameters: species or system Human gammaherpesvirus 8;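 also: fluorescence polarization of a labeled DNA duplex reporting LANA DNA binding; potency is for inhibitors that block LANA binding to the DNA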
T1 sequence (O40947 whole entry): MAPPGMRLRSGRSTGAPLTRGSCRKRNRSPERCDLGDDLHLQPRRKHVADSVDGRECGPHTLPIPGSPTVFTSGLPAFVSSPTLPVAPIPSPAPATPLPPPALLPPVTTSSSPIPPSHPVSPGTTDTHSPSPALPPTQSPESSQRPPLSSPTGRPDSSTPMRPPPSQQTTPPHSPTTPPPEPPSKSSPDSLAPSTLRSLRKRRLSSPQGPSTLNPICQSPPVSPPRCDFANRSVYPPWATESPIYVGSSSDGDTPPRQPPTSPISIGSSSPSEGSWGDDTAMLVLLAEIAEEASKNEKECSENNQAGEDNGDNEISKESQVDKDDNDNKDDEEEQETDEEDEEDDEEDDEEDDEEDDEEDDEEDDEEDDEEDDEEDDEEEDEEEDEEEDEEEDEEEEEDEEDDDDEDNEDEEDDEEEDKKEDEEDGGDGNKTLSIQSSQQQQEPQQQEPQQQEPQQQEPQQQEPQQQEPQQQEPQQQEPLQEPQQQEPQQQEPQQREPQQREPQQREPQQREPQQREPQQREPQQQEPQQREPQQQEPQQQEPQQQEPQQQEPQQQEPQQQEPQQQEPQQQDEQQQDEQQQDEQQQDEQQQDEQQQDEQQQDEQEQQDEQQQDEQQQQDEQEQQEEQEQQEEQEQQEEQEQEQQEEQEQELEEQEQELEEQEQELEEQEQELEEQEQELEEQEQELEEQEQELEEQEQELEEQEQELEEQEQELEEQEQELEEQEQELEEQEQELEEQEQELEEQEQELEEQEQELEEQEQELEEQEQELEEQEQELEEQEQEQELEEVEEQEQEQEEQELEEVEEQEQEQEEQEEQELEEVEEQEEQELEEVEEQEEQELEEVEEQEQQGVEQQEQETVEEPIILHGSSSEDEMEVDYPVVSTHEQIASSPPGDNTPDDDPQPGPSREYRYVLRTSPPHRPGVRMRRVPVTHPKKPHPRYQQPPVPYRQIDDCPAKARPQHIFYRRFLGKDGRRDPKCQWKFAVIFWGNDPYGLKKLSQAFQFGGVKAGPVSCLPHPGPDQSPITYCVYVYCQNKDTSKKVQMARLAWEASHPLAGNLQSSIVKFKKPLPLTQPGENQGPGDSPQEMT

Insulin-degrading enzyme [5] = target: T2, Insulin-degrading enzyme (Homo sapiens, UniProt P14735); test: activators of recombinant IDE enzyme, dose response, counter-screen for IDE activator project, biochemical, fluorescence polarization (AID 588681)
T2 sequence (P14735 whole entry): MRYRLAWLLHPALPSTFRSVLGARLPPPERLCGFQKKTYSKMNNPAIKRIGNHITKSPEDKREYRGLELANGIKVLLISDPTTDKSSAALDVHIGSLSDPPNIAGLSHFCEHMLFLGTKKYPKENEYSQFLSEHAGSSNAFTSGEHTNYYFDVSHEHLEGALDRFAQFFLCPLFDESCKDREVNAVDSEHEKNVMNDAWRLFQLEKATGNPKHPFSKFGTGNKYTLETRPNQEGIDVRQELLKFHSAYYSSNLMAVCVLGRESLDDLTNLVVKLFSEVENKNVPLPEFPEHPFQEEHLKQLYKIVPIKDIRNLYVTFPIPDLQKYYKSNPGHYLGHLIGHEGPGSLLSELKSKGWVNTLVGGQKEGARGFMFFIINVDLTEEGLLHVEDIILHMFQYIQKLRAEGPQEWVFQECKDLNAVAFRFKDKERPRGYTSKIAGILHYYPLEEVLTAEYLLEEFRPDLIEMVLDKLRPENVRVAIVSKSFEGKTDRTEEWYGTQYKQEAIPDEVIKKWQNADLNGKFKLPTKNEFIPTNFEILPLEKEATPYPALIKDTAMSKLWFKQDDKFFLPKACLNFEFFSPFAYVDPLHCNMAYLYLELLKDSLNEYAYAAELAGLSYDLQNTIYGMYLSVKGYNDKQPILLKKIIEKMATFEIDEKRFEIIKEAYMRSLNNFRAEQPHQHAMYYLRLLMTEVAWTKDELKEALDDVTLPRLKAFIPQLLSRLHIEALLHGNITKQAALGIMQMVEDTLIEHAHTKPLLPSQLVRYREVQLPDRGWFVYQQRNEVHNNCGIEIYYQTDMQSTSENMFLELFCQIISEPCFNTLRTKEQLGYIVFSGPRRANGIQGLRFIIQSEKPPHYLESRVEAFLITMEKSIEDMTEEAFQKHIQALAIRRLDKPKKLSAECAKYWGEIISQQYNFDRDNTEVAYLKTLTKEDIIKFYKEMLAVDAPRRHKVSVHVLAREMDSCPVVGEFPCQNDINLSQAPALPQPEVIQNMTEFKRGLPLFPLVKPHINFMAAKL

Insulin-degrading enzyme [6] = target: T2, Insulin-degrading enzyme; test: activators of endogenous IDE in HEK cells, dose response, cell-based, fluorescence polarization (AID 588439); format: functional
HEK293 [7] = test: HEK cell cytotoxicity by LDH release, dose response, cytotoxicity control for IDE activator project, fluorescence, HEK cells (AID 588440); format: functional, cell-based; settings: Homo sapiens;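 also: cytotoxicity by LDH release measuring loss of membrane integrity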
HEK293 [8] = test: optical interference in Abeta FP readout, dose response, artefact control for IDE activator project, biochemical, fluorescence polarization (AID 588442); format: functional, cell-based; settings: Homo sapiens
P388/ADR = test: cells; format: functional; settings: Mus musculus
SN12K1 = test: cells; format: functional; settings: Homo sapiens
P388 = test: cells; format: functional; settings: Mus musculus
[9] = target: SWI/SNF-related matrix-associated actin-dependent regulator of chromatin subfamily A member 2 (Homo sapiens, UniProt P51531); test: Luminescence-based cell-based high throughput dose response assay to identify activators of the function of SWI/SNF related, matrix associated, actin dependent regulator of chromatin, subfamily a, member 2 (SMARCA2, BRM).; format: functional
cells = format: functional, cell-based
[10] = Counterscreen for activators of the function of SWI/SNF related, matrix associated, actin dependent regulator of chromatin, subfamily a, member 2 (SMARCA2, BRM): Luminescence-based cell-based high throughput dose response assay to identify non-selective compounds using the VP16 reporter assay.; format: functional
[11] = target: T3, Nuclear receptor subfamily 0 group B member 1 (Homo sapiens, UniProt P51843); format: functional, cell-based;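 also: HEK293T cells transfected with SF-1 and DAX-1 plus StAR promoter luciferase reporter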
T3 sequence (P51843 whole entry): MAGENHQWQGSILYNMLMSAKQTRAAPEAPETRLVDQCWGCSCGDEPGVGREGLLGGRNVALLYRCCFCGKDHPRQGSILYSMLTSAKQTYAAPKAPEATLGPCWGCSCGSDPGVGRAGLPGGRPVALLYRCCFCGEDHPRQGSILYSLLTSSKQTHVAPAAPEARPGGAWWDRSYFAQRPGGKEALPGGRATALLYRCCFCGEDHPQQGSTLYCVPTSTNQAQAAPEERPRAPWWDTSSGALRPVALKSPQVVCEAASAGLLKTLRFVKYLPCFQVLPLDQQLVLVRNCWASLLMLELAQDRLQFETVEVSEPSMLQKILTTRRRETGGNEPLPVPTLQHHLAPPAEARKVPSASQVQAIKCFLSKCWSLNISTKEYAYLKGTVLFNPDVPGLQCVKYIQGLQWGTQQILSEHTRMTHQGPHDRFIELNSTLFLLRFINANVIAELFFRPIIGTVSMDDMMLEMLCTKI

Mu-type opioid receptor = Mu-type opioid receptor (Homo sapiens, UniProt P35372); format: functional, cell-based;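 also: U2OS cells with beta-arrestin recruitment to OPRM1 by beta-gal complementation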
[12] = target: 5-hydroxytryptamine receptor 2A (Mus musculus, UniProt P35363); format: functional, cell-based;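 also: CHO-K1 cells with tagged receptor and beta-arrestin; agonist potency measured as compound-induced activation of the receptor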
[13] = HepG2 cell cytotoxicity, dose response, cytotoxicity control, cherry-picks, set 5 (AID 1053118); format: functional, cell-based
[14] = lymphoblastoid cell cytotoxicity, dose response, cytotoxicity control, plate reader, dry powder, set 2 (AID 624367); format: functional
[15] = IGROV1 ovarian cancer cell cytotoxicity, dose response, PAX8 inhibitor project, plate reader, dry powder samples (AID 743043); format: functional, cell-based; settings: IGROV-1
[16] = cytotoxicity in OVCAR8 ovarian cancer cells, dose response, PAX8 project, cell-based, plate reader, dry powder samples (AID 743197); format: functional; settings: OVCAR-8
[17] = target: T4, Sentrin-specific protease 8 (Homo sapiens, UniProt Q96LD8); format: functional
T4 sequence (Q96LD8 whole entry): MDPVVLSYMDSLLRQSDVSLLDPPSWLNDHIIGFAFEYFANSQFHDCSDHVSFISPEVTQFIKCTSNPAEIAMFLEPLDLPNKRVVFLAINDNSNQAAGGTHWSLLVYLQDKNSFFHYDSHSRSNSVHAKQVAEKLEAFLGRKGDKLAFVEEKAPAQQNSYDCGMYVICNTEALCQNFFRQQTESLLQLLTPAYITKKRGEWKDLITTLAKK

[18] = target: T4, Sentrin-specific protease 8; format: functional; remark: listed apart in the source
Caspase-3 = target: T5, Caspase-3 (Homo sapiens, UniProt P42574); test: Dose-response confirmation of uHTS inhibitor hits of Sentrin-Specific Protease 8 in a Caspase-3 Fluorescence assay.; format: functional
T5 sequence (P42574 whole entry): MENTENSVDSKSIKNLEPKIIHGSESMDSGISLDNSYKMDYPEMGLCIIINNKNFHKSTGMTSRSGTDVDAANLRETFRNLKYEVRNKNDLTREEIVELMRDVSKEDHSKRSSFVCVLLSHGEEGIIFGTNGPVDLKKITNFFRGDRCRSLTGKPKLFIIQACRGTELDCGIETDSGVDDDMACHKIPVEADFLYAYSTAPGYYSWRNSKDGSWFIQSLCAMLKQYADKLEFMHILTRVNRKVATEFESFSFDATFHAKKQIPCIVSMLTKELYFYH

Caspase-6 = target: T6, Caspase-6 (Homo sapiens, UniProt P55212); test: human caspase-6 inhibitors, dose response, biochemical, VEID-R110 fluorescence, cherry-pick (AID 720632)
T6 sequence (P55212 whole entry): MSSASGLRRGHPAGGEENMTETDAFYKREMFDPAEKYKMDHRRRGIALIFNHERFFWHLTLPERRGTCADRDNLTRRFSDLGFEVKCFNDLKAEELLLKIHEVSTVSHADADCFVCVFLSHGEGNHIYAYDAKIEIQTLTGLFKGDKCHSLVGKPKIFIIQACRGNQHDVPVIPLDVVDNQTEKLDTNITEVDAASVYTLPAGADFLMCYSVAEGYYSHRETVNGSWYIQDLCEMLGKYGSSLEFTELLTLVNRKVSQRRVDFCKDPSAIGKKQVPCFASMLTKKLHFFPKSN

Protein Wnt-3a = Protein Wnt-3a (Mus musculus, UniProt P27467); test: SAR analysis of small molecule antagonists of Gli-SUFU in a Wnt3a luminescent reporter assay.; format: functional
Chain of Protein Wnt-3a (P27467 whole entry): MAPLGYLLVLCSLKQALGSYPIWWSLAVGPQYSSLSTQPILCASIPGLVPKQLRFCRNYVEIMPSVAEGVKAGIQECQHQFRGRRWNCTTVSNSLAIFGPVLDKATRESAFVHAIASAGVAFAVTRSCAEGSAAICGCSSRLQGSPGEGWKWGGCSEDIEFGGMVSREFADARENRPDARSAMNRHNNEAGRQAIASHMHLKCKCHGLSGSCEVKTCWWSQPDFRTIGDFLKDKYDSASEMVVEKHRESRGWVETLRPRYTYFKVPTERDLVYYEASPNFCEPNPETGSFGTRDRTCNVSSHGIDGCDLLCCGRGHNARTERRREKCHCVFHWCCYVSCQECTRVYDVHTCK

Chain of Paired box protein Pax-8 (Q06710 whole entry): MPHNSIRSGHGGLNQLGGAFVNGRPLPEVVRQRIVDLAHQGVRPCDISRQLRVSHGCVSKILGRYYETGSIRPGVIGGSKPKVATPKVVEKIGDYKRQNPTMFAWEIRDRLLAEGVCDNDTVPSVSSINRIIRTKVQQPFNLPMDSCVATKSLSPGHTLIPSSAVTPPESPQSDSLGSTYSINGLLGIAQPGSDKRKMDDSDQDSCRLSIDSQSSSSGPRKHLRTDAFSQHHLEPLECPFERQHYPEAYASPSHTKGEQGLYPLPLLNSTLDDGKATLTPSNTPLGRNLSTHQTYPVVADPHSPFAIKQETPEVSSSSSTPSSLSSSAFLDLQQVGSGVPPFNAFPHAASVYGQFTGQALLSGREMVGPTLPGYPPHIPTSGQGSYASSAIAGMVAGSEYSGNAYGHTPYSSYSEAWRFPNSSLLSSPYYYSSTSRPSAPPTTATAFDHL
Chain of 5-hydroxytryptamine receptor 2A (P35363 whole entry): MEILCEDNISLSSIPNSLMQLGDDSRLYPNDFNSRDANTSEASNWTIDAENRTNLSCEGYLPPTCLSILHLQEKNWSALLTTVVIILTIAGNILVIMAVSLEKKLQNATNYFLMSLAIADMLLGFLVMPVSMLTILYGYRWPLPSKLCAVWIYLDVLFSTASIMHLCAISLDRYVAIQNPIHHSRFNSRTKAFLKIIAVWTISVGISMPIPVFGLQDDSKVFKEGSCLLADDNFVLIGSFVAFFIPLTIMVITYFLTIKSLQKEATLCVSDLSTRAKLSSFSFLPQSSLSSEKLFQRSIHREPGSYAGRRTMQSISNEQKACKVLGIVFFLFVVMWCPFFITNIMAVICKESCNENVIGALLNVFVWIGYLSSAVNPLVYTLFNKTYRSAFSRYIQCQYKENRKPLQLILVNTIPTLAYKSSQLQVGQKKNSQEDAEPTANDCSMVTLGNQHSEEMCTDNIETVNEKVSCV
Chain of Beta-lactamase (Salmonella choleraesuis (strain SC-B67), UniProt Q5J463) (Q5J463 whole entry): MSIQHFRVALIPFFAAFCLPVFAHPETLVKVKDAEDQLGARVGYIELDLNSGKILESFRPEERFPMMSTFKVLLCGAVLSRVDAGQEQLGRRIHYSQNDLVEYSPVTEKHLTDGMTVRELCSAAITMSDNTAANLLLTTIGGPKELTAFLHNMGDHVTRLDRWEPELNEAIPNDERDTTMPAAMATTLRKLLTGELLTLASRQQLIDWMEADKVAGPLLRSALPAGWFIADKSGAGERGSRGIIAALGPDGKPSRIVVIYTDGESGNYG
Chain of Mu-type opioid receptor (P35372 whole entry): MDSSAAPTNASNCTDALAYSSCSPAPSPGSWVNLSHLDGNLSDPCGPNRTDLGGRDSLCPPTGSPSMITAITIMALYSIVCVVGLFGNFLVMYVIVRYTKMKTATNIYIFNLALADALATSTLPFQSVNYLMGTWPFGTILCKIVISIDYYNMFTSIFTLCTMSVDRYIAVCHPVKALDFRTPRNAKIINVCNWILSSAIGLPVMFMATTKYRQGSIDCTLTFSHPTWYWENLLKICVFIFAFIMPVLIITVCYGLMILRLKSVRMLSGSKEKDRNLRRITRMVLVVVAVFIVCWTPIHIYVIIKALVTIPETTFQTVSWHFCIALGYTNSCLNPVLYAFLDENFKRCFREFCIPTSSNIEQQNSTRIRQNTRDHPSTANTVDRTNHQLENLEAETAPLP
Chain of Beta-lactamase (Pseudomonas aeruginosa, UniProt Q79MP6) (Q79MP6 whole entry): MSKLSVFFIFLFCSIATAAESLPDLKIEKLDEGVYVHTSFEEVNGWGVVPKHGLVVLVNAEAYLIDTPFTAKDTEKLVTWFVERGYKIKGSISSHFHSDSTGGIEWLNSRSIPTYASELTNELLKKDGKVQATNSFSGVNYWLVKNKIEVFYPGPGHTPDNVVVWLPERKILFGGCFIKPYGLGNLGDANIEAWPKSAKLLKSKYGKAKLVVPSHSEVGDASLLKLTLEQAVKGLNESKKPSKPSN
Chain of SWI/SNF-related matrix-associated actin-dependent regulator of chromatin subfamily A member 2 (P51531 whole entry): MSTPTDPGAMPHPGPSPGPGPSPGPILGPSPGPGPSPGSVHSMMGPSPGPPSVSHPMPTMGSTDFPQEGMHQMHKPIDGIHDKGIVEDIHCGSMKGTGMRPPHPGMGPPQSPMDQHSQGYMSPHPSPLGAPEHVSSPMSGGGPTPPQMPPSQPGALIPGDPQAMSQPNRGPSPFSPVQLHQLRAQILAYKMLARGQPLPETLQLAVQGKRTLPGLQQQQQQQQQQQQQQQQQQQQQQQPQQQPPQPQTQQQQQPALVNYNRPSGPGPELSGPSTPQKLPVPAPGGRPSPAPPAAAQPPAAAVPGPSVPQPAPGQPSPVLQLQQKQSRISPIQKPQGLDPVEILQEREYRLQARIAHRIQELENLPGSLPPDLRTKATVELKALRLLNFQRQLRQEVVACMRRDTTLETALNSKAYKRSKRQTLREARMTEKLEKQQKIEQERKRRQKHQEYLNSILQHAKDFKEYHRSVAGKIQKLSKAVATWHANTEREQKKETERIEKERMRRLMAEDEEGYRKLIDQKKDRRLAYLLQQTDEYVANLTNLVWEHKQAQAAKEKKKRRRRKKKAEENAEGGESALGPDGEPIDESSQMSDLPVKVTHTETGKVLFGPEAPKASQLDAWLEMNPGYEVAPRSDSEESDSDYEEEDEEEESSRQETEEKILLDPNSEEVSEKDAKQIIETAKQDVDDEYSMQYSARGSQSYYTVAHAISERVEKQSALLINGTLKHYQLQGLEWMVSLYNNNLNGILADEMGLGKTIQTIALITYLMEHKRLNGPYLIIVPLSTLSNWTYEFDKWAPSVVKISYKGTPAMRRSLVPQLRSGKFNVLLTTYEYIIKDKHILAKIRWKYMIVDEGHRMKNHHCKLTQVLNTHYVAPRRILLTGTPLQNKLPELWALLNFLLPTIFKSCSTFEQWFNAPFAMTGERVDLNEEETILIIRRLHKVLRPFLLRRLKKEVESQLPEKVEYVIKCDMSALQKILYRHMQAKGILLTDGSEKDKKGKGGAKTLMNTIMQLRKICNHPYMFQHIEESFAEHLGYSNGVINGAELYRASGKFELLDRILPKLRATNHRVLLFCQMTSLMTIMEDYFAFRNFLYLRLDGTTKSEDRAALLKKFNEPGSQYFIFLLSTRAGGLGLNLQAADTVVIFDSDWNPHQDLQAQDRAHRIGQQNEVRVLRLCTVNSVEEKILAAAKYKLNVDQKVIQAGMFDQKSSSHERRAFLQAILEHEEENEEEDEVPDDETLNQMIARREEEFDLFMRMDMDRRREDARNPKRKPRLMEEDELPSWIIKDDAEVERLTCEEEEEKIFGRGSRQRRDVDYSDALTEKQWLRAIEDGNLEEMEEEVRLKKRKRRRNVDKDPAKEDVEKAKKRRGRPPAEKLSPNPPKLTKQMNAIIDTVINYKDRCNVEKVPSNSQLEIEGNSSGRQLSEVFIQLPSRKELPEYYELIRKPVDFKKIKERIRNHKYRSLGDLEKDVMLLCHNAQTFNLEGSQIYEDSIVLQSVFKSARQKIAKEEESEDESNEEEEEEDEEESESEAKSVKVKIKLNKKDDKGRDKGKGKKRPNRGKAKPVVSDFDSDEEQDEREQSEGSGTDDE

Compound: C[C@@H]1CN([C@H](C)CO)C(=O)c2cc(NC(=O)Nc3ccc(F)cc3)ccc2O[C@@H](C)CCCCO[C@H]1CN(C)Cc1ccc(C(F)(F)F)cc1
- AC50 (Paired box protein Pax-8): 4.13 µM (active)
- AC50 [1]: 37.9 µM (active)
- AC50 [2]: 15.8 µM (active)

Compound: CCCc1cc(C(N)=O)c(NC(=O)c2cc(C)on2)s1
- AbsAC35 (Plasmodium falciparum): 70.04 µM

Compound: CC(=O)Oc1ccc2c(c1)Oc1cc(OC(C)=O)ccc1C21OC(=O)c2ccccc21 [FLUORESCEIN DIACETATE]
- IC50 (Beta-lactamase [3]): > 59.6 µM (inactive)
- IC50 (Beta-lactamase [4]): > 59.6 µM (inactive)
- AC50 (ORF 73): 0.042 µM (active)
- EC50 (Insulin-degrading enzyme [5]): > 54.7 µM (inactive)
- EC50 (Insulin-degrading enzyme [6]): > 54.7 µM (inactive)
- IC50 (HEK293 [7]): > 89.2 µM (inactive)
- EC50 (HEK293 [8]): > 54.7 µM (inactive)

Compound: Nc1ccc(S(=O)(=O)Nc2cnc3c(Cl)cccc3n2)cc1 [CHLORSULFAQUINOXALINE]
- GI50 (P388/ADR): 128 µM (inactive)
- GI50 (SN12K1): 117 µM (inactive)
- GI50 (P388): 87.1 µM (inactive)
- EC50 [9]: > 91.2 µM (inactive)
- IC50 (cells): > 67.5 µM (inactive)
- EC50 [10]: > 91.2 µM (inactive)
- IC50 [11]: > 67.5 µM (inactive)

Compound: CCOC(=O)C1(Cc2ccc(Cl)cc2)CCN(C(C)CCn2cccn2)CC1 (stereo unspecified)
- EC50 (Mu-type opioid receptor): 92.5 µM (inactive)
- EC50 [12]: 52.2 µM (inactive)

Compound: COCC(=O)Nc1ccc2c(c1)C(=O)N(C)[C@@H]1CC[C@H](CC(=O)NCc3ccccc3Cl)O[C@H]1CO2
- AC50 [13]: > 52 µM (inactive)

Compound: Cc1noc(C)c1S(=O)(=O)Nc1ccc2c(c1)C(=O)N([C@H](C)CO)C[C@@H](C)[C@@H](CN(C)Cc1ccc(C(F)(F)F)cc1)OCCCC[C@H](C)O2
- AbsAC35 [14]: 47.16 µM
- AC50 (Paired box protein Pax-8): 8.19 µM (active)
- AC50 [2]: 28 µM (active)
- AC50 [15]: 47.1 µM (active)
- AC50 [16]: 46.4 µM (active)

Compound: CCOCCOc1cc(NCc2ccccc2)c2ncn(C(C)C)c2c1
- IC50 [17]: 8.07 µM (active)
- IC50 [18]: 9.3 µM (active)
- IC50 (Caspase-3): 45.5 µM (active)
- AC50 (Caspase-6): 9.77 µM (active)

Compound: CCCCN(C)c1cc(NC(=O)c2ccccc2)ncn1
- IC50 (Protein Wnt-3a): > 21.8 µM (inactive)
